The subject of assay [1] is E2-stimulated growth of mouse uterus. Put plainly: Immature mouse uterine growth assay. Type of assay: in vivo. The source says: The anti-breast cancer activity of the linear and cyclic 8-mer and 9-mer AFP-derived peptides is well-documented using the immature mouse uterine growth assay and the human breast cancer xenograft assay; there is a strong correlation between the results of these two assays. To evaluate peptide-induced inhibition by the peptide of the present invention of estrogen-stimulated proliferation of normal tissue, the immature mouse uterine growth assay was utilized. Briefly, 13-15 day-old Swiss/Webster female mice, 6-8 g in body weight, were distributed into treatment groups of 5 mice per group so that each group contained animals of the same range of body weight. The peptide of the invention was injected i.p., s.c., or p.o. into the mice. One hour later, estradiol (E2) or vehicle control for E2 was injected i.p. Twenty-two hours after the second injection, uteri were harvested, trimmed free of mesenteries, and immediately weighed. The uterine weights were normalized to mouse body weights to compensate for differences in body weight among litters of the same age. Experiments employed a minimum of five mice per group and the mean normalized uterine weight±SE for each group was calculated. Percent growth inhibition in a test group was calculated from normalized uterine wet weights as described below.
Differences between groups were evaluated, employing the nonparametric Wicoxon ranks sum test. In all cases, growth inhibitions that were greater than 25% were significant at P≦0.05.
In other experiments, peptide analogs comprising the sequences TOVN SEQ ID NO.: 3) and TPVN (SEQ ID NO.: 2) were assessed for their ability to inhibit E2-stimulated growth of mouse uterus after intraperitoneal and oral administration.
The ability to inhibit E2-stimulated growth of normal mouse uterus was used as a screening assay for biological activity of AFPep analogs. In general, inhibitory activity≧20% is considered to be biologically significant. Each analog's inhibitory effect on E2-stimulated growth was compared to AFPep (a positive control) and to PGVGQ (SEQ ID NO.: 44)(a negative control). PGVGQ (SEQ ID NO.: 44) (amino acids 478-482 of AFP) is a portion of the primary structure of AFP near to the anti-cancer active site of AFP and is comprised of amino acids (P, V, and G) that are important components of AFPep. A scrambled analog of AFPep was not used because some scrambled peptides retain low biological activity (data not shown). In Table 3, bold letters denote the sequences containing a putative Type I beta-turn, which was postulated to be necessary for antiestrogenic activity.

For assay [2] the test system is unchanged. The following applies: Mesfin et al. / earlier studies; cited from earlier work.
Assay [3] concerns MCF-7 human breast cancer cells. Put plainly: MCF-7 human tumor xenograft assay in SCID mice. Type of assay: in vivo, mouse. As for the experimental part: The peptides of the invention were evaluated for their ability to inhibit tumor growth in a human tumor xenograft assay. Briefly, MCF-7 human breast cancer cells were obtained from ATCC® (Rockville, Md.) and were grown in DMEM supplemented with 5% FCS, 1% non-essential amino acids, 10 ng/ml insulin, 2 mM L-glutamine, 100 units/ml penicillin, and 100 μg/ml streptomycin. MCF-7 cells from culture were solidified into a fibrin clot. The tumor-containing clots were cut into pieces about 1.5 mm in diameter and implanted under the kidney capsule of severe combined immunodeficient (ICR-SCID) mice (Taconic Farms, Germantown, N.Y.) as described in Bennett et al. (Clin. Cancer Res. 1998; 4:2877-84).
Estrogen supplementation of mice was required for the growth of MCF-7 tumors. Supplementation was accomplished by s.c. implantation of a Silastic tubing capsule containing solid E2 (2 mm in length) inserted on the day of tumor implantation. Tumor size was evaluated during survival laparotomy using a dissecting microscope at the time of tumor implantation and at days 15 and 30 after tumor implantation.
The T47D human breast cancer cell line is responsive in culture, but it was a less reliable tool when grown as a xenograft tumor in immune deficient mice, having a take-rate of <60% in these mice. However, the MCF-7 human breast cancer cell line has a tumor take-rate of 100% in immune deficient mice and is completely dependent on E2 for growth in these mice (2). Consequently, MCF-7 xenografts were used as a model for ER+human breast cancer to evaluate, in vivo, the effectiveness of TOVNO (SEQ ID NO.: 7) and TOVNOGNEK (SEQ ID NO.: 34) as anticancer agents.

Assay [4] concerns T47D human breast cancer cells. As for the experimental part: T47D cells were obtained from ATCC® (Rockville, Md.) and grown in culture according recommended protocols. Cells were treated with 1 nM estrogen or 100 nM TOVNO (SEQ ID NO.: 7)/1 nM estrogen. Control cells received 10% estrogen-free media. Cells were treated for seven days.
A number of AFPep analogs were assessed for in vitro anticancer activity.

“Also recorded” adds a separate entry of the source. Where a SMILES comes first, the peptide text is derived from it. [ ]: non-standard residue; d: D form. Hyp = O=C(O)[C@@H]1C[C@@H](O)CN1

With “MTPVNPG [7-mer peptide earlier reported by Mesfin et al, reference compound]”, the “Inhibition ± S.E, % Immature mouse uterine growth Intraperitoneal” value in assay [1] (1 μg/mouse intraperitoneally) came to 18 ± 1%. Also, the “antiestrogenic activity (inhibition of E2-stimulated uterine growth), in words” value in assay [1] (Table 3 discussion, 1 μg/mouse intraperitoneally) is listed as “significantly less activity”. The “antiestrogenic activity reported in earlier studies” value in assay [2] is “substantially reduced antiestrogenic properties; also recorded: little antiestrogenic activity”.
`CC(C)[C@@H]1NC(=O)[C@@H]2C[C@@H](O)CN2C(=O)[C@H]([C@@H](C)O)NC(=O)[C@H](CCCCN)NC(=O)[C@H](CCC(=O)O)NC(=O)[C@H](CC(N)=O)NC(=O)CNC(=O)[C@@H]2C[C@@H](O)CN2C(=O)[C@H](CC(N)=O)NC1=O` [cyclo[EKTOVNOGN], reference compound] (cyclo(EKT[Hyp]VN[Hyp]GN)): the “growth of ER+ human MCF-7 breast cancer tumors” value in assay [3] (once a day 10 μg per mouse i.p., FIG. 7b) is on record as “significantly inhibited”. In assay [3] (once a day 100 μg by oral gavage, FIG. 7a), the “growth of ER+ human MCF-7 breast cancer tumors” value is given as “significantly inhibited”. Also, the “dose-response profile, inhibition of E2-stimulated uterine growth” value in assay [1] (FIG. 5) is “attenuated but did not completely eliminate this loss of activity with increasing doses”. In addition, in assay [4] (FIG. 6), the “concentration up to which E2-stimulated T47D growth was inhibited in a concentration dependent manner / activity maintained” value is “up to 10^−6 M” and the “dose response profile, inhibition of E2-stimulated T47D cell growth” value is recorded as “lost activity at higher concentrations”. In addition, the “Inhibition ± S.E, % T47D cell proliferation” value in assay [4] (peptide 1 μM, E2-stimulated) came out at 51 ± 4 %.

These data come from US7964701B2, “Alpha-fetoprotein peptides” (Albany Medical College, priority 2006, dated 2011).
